Data published in patent US4668499A, “Process for manufacturing hydrogen peroxide” (E. I. Du Pont de Nemours and Company, priority 1986, dated 1987).
Read-outs that look alike come from different tables or passages of the source.

Legend:
pKa of the amines = format: physicochemical; settings: in 50/50 methanol/water; acid titration using glass electrode
Description: ^(1) pKa values in water from Patai, S., "The Chemistry of Amino
Groups,", Interscience Publishers, New York, New York (1968), Chapter 4.
^(2) pKa values in 50/50 methanol/water determined by acid
titration using glass electrode.

[1] = activity in anthrone reoxidation (disappearance of 2-butylanthrone in fortified working solution under oxygen; liquid chromatography); settings: 0.1 weight % amine, 60° C.; for % Original Amount Remaining After 24 Hours: 2-Butylanthrone: 2 weight % 2-butylanthrone, control (no amine) 76
[2] = amine stability to oxidation under plant extraction-stage conditions (35 weight % aqueous hydrogen peroxide, 60° C., 24 hours; gas chromatography); settings: 0.1 weight % amine in working solution, shaken with equal volume 35 weight % aqueous hydrogen peroxide
[3] = cited from earlier work
[4] = pilot plant cyclic anthraquinone process with amine addition
Procedure: A pilot plant facility, sized to be approximately 1/1000 that of a commercial unit, was charged with 1.5M lbs. of working solution withdrawn from the commercial unit. The working solution comprised a mixture of butyl and amyl anthraquinones and tetrahydroanthraquinones dissolved in a Cyclosol®/diisobutylcarbinol solvent. Using plant Pd/Al2 O3 slurry catalyst in the hydrogenator, operation of the pilot plant was commenced with a working solution flow of about 1.5 g.p.m. and at about 50° C. The average titer of the reduced working solution leaving the hydrogenator was about 38. "Titer" is an industrial term used as a measure of the depth or degree of reduction of the working solution, that is, the amount of hydroquinone formed expressed as LB. MOLS/10,000 gallons of working solution. Thirty-eight titer represents driving conditions for a commercial facility which is usually operated at 32 titer or less. As operating titer is increased, experience has shown that hydrogen peroxide production is increased but at the expense of increased quinone degradation and quinone use.
Over an initial operating period of two months in the pilot plant without amine addition, the anthrone content of the working solution increased steadily from 0.2 wt. % to 0.7 wt. % and was accompanied by a corresponding decrease in the quinone content of the working solution. Then, 0.05 wt. % of N,N-di-n-butylaniline was added to the pilot plant working solution hold tank. Over the next 36 hours a rapid drop in the anthrone content to about 0.2 wt. % was observed.
Operation of the pilot plant was continued at the 38 titer level for a further four and a half months with a daily production of about 250 lbs. hydrogen peroxide. The N,N-di-n-butylaniline content of the working solution was maintained at about 0.03 wt. % by means of small daily additions. […] Other operating parameters such as yield and product quality were unaffected.

[5] = 35% aqueous hydrogen peroxide
[6] = in water, from Patai, The Chemistry of Amino Groups (1968), Chapter 4

SMILES	pKa (pKa of the amines)	% Original Amount Remaining After 24 Hours: 2-Butylanthrone [1] [%]	% Original Amount Remaining After 24 Hours: Amine [2] [%]	other results
CCCCN(CCCC)c1ccc(C)cc1 [Example 10, N,N--Di-n-butyl-4-methylaniline]	5.8	10	71	
CCCCN(CCCC)CCCC [Example 5, Tributylamine, reference compound]		0	2	pKa [3, 6]: 10.9; Reaction was complete in (time) ([1]; 2-butylanthrone reoxidation): three
CCN(CC)c1cccc(C)c1 [Example 11, N,N--Diethyl-3-methylaniline]	6.0	5	55	
CCCCN(CCCC)c1ccccc1 [Example 7, N,N-di-n-butylaniline]	5.2	13	76	pKa [3, 6]: 6.2; anthrone content of the working solution after amine addition ([4]; 0.05 wt. % amine added, over the next 36 hours, from 0.7 wt. %, about 50° C., titer about 38): about 0.2 wt. %; hydrogenation activity ([4]; after addition of 0.05 wt. % amine): An improvement in hydrogenation activity was also noted; loss of quinones ([4]; amine maintained at about 0.03 wt. %, four and a half months, 38 titer): no measurable loss of quinones
CCCCCCN(CCCCCC)c1ccccc1 [Example 6, N,N--Di-n-hexyl-aniline]	5.0	36	86	
c1ccc(CN(Cc2ccccc2)Cc2ccccc2)cc1 [Example 4, Tribenzylamine, reference compound]		64	83	
Cc1cccc(N)c1 [Example 2, m-Toluidine]				% Original Amount Remaining After 24 Hours: Amine [5]: 7%; pKa ([3]; water): 4.7
c1ccc(Nc2ccccc2)cc1 [Example 3, Diphenylamine, reference compound]		82	96	pKa [3, 6]: 0.9
CCN(CC)c1ccccc1C [Example 8, N,N--Diethyl-2-methylaniline]	5.3	15	43	
CCCCN(CCCC)c1ccc(C)c(C)c1 [Example 12, N,N--Di-n-butyl-3,4-dimethylaniline]	6.2	8	61	
CCCCCCCCc1ccc(N(CCCC)CCCC)cc1 [Example 9, N,N--Di-n-butyl-4-octylaniline]	5.6	11	68	
